Data from US7351732B2, “Cycloalkanedione derivatives, method for the production thereof and their pharmacological applications” (Schwarz Pharma S.L., priority 2002, dated 2008).

Experiments:
[1] = molecular target: T1, 5-human HT1A receptor (Homo sapiens, UniProt P08908); test: Test on adenylate cyclase in He-La cells (inhibition of forskolin stimulation); type: cell-based; conditions: for EC50: inhibition of forskolin-stimulated adenylate cyclase, He-La cells transfected with 5-HT1A, read-out: CE50 (the source's name); for % Maximum inhibition: inhibition of the activation induced by forskolin
T1 construct: expressed in transfected cells; host or cells: HeLa cells
T1 sequence (P08908 1-422): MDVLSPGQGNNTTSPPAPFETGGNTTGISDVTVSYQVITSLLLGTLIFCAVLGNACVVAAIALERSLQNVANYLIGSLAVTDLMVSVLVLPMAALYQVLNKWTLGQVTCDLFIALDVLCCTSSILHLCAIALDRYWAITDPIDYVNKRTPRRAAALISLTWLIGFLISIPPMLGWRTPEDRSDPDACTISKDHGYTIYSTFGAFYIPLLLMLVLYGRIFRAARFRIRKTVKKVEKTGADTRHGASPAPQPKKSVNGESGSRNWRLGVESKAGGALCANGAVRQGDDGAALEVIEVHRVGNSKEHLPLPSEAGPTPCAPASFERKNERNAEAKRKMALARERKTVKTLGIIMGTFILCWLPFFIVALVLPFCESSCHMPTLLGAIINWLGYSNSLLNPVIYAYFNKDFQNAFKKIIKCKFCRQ
From the text: The functional character of the new compounds was initially determined by studying their effect on adenylate cyclase in He—La cells transfected with the […], measuring their inhibiting effect on the stimulation of the enzyme induced by forskolin (Table 3 below).

[2] = molecular target: T2, 5-HT2A receptors (Rattus norvegicus, UniProt P14842); test: Radioligand displacement, 5-HT2A receptors, [3H]ketanserin; type: binding; conditions: rat cerebral cortex, read-out: Ki ± E.E. 5-HT2A
T2 construct: (b) 5-HT2A receptors, [^3H]ketanserin, rat cerebral cortex; from tissue; host or cells: rat cerebral cortex

[3] = test system: neurons of the hippocampal area CA1; test: Hyperpolarization of neurons of the hippocampal area CA1; type: cell-based; conditions: dose-effect curves
[4] = molecular target: T3, D2 receptors (Rattus norvegicus, UniProt P61169); test: Radioligand displacement, D2 receptors, [3H]spiperone; type: binding; conditions: rat striatum, read-out: Ki ± E.E. D2
T3 construct: (g) D2 receptors, [^3H]spiperone, rat striatum; from tissue; host or cells: rat striatum

[5] = molecular target: T4, 5-HT3 receptors (Rattus norvegicus, UniProt P35563); test: Radioligand displacement, 5-HT3 receptors, [3H]LY 278584; type: binding; conditions: [3H]LY 278584, rat cerebral cortex; read-out: Ki ± E.E. 5-HT3
T4 construct: (c) 5-HT3 receptors, [^3H]LY 278584, rat cerebral cortex; from tissue; host or cells: rat cerebral cortex
T4 sequence (P35563 24-483): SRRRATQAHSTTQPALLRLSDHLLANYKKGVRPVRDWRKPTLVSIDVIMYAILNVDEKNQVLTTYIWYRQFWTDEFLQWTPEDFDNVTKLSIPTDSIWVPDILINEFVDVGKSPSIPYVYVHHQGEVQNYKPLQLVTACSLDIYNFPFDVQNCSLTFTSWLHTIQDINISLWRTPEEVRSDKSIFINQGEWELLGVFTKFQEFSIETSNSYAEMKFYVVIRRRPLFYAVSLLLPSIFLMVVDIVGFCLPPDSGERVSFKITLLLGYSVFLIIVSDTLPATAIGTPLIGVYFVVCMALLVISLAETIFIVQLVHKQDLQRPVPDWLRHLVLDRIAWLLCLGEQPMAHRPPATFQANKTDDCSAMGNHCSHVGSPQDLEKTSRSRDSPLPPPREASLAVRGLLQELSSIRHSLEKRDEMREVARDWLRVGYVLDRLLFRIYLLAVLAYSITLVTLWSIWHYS

[6] = molecular target: T5, 5-HT4 receptors (Rattus norvegicus, UniProt Q62758); test: Radioligand displacement, 5-HT4 receptors, [3H]GR 113808; type: binding; conditions: [3H]GR 113808, rat striatum; read-out: Ki ± E.E. 5-HT4
T5 construct: (d) 5-HT4 receptors, [^3H]GR 113808, rat striatum; from tissue; host or cells: rat striatum

[7] = molecular target: T6, 5-HT1A (Rattus norvegicus, UniProt P19327); test: Radioligand displacement, 5-HT1A receptors, [3H]-8-OH-DPAT; type: binding; parameters: (a) 5-HT1A receptors, [^3H]-8-OH-DPAT, rat cerebral cortex; from tissue; host or cells: rat cerebral cortex; conditions: rat cerebral cortex, read-out: Ki ± E.E. 5-HT1A
T6 sequence (P19327 1-422): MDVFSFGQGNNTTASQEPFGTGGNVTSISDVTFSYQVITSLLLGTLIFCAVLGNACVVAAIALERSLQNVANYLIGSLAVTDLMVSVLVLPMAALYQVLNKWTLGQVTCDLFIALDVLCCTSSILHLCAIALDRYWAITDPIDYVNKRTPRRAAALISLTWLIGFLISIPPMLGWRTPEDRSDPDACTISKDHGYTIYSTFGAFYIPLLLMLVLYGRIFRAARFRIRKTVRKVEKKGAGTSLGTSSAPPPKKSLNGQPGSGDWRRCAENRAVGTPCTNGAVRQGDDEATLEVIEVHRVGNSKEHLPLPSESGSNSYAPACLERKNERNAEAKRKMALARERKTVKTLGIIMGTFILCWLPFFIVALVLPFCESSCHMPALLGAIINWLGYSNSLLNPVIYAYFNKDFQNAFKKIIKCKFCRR

[8] = molecular target: T6, 5-HT1A; test: [35S]-GTPγS fixation test to coronal sections of rat brain; type: biochemical; parameters: fixation test of [^35S]-GTPγS to coronal sections of rat brain; from tissue; host or cells: coronal sections of rat brain; conditions: 10 μM
Protocol: The in vitro agonist character of the new compounds was also evaluated in some cases by the fixation test of [^35S]-GTPγS to coronal sections of rat brain.

[9] = molecular target: α1 receptors; test: Radioligand displacement, α1 receptors, [3H]prazosin; type: binding; conditions: rat cerebral cortex, read-out: Ki ± E.E. α1
[10] = test system: hippocampal area CA1; test: Transient global ischemia model in gerbils; type: in vivo; conditions: gerbil, 1-5 mg/kg s.c., 30 min before and 24 and 48 h after ischemia
From the text: In the transient ischemia model in gerbils induced by temporary occlusion of both carotid arteries, the delivery of compounds no.

[11] = molecular target: T7, 5-HT7 receptors (Rattus norvegicus, UniProt P32305); test: Radioligand displacement, 5-HT7 receptors, [3H]-5-CT; type: binding; conditions: [3H]-5-CT, rat hypothalamus; read-out: Ki ± E.E. 5-HT7
T7 construct: (e) 5-HT7 receptors, [^3H]-5-CT, rat hypothalamus; from tissue; host or cells: rat hypothalamus

[12] = test system: primary cultures of rat hippocampus; test: Apoptotic neuronal death induced by serum deprivation; conditions: 24 hours without serum; compared with compound no. 1
Protocol: The neuroprotective effect of the compounds considered was studied in experimental models in vitro, using primary cultures of rat hippocampus exposed to serum deprivation, to a toxic concentration of glutamate, or incubated in conditions of hypoxia and absence of glucose.

[13] = test system: 5-HT1A; test: Mouse hypothermia test; type: in vivo
From the text: All compounds previously characterized in vitro as 5-HT1A agonists (Table 3) were delivered by subcutaneous injection to mice in order to quantify the hypothermia associated to stimulation of this serotonergic receptor subtype.

T7 sequence (P32305 whole entry): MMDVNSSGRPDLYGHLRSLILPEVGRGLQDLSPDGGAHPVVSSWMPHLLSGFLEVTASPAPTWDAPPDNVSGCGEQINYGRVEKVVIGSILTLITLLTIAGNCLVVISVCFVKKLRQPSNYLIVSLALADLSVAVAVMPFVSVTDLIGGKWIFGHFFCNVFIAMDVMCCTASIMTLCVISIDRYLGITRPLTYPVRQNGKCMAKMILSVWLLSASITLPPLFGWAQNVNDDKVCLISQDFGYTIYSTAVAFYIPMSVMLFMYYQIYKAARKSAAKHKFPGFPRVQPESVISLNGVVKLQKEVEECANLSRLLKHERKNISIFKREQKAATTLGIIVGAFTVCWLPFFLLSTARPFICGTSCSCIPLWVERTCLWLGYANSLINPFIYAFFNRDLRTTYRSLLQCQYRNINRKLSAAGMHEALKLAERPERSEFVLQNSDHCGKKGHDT
T2 sequence (P14842 whole entry): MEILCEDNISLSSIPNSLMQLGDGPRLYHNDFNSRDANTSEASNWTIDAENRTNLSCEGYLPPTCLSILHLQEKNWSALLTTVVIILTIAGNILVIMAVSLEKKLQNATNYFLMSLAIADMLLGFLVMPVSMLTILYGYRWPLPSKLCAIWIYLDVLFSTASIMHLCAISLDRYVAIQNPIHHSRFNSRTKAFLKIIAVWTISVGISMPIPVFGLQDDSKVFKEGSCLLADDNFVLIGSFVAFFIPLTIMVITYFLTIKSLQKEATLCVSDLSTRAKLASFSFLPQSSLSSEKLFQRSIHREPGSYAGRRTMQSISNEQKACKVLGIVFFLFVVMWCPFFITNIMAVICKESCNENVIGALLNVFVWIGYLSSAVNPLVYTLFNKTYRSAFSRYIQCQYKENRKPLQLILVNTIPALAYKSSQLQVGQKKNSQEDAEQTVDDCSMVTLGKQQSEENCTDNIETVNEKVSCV
T5 sequence (Q62758 whole entry): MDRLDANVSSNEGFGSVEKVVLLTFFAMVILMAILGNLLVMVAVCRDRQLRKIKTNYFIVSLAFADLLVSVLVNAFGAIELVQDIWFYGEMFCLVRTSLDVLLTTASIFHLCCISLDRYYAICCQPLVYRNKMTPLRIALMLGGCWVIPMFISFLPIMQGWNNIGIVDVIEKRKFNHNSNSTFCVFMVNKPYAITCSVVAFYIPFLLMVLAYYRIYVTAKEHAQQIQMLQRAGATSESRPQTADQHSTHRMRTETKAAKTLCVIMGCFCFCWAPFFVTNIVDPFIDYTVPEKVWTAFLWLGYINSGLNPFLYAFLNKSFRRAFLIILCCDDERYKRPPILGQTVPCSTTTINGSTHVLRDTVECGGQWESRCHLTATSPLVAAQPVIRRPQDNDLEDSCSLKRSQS
T3 sequence (P61169 whole entry): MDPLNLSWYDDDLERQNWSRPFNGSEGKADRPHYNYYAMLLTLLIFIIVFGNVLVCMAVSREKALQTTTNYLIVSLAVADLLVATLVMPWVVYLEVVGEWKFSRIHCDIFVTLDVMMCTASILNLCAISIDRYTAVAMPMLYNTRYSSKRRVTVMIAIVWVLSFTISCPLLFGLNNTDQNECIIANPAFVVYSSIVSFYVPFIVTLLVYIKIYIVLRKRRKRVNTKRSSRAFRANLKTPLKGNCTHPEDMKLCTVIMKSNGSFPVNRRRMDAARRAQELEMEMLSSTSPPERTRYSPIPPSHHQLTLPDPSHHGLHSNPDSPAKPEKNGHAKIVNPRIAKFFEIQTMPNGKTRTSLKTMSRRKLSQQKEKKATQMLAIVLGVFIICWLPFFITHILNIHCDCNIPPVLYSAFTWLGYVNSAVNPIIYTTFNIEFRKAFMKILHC

Row | SMILES | EC50 [1] | % Maximum inhibition [1] | Ki [2] | Potency in hyperpolarization test compared with 8-OH-DPAT [3] | Ki [4] | Ki [5] | Ki [6] | Ki [7] | [35S]-GTPγS fixation compared with 8-OH-DPAT [8] | Ki [9] | Prevention of ischemic injury in hippocampal area CA1 (Nissl stain) [10] | Ki [11] | Neuroprotective effect in serum deprivation [12] | Minimum effective dosage ([13]; subcutaneous injection, rectal temperature) | Hypothermic effect ([13]; subcutaneous, at minimum effective dose)
1 | O=C1C2SCCN2C(=O)N1CCCCNCC1CCc2ccccc2O1 (racemic) [Compound 2, (±)-2-[4-[(Chroman-2-yl)methylamine]butyl]-1,3-dioxoperhydroimidazo[1,5-b]thiazol] | 18.9 nM | 94.5% | > 1000 nM | indistinguishable in potency to that of the 5-HT1A, 8-OH-DPAT type agonist | > 10000 nM | > 10000 nM | > 10000 nM | 19.9 ± 6 nM |  |  |  |  |  |  | 
2 | O=C1C2CSCN2C(=O)N1CCCCNCC1CCc2ccccc2O1 (racemic) [Compound 3, (±)-2-[4-[(Chroman-2-yl)methylamine]butyl]-1,3-dioxoperhydroimidazo[1,5-c]-thiazol] | 31.5 nM | 89.3% |  |  |  |  |  | 13.2 ± 1 nM | especially similar to those obtained with the 5-HT1A, 8-OH-DPAT agonist prototype |  |  |  |  |  | 
3 | O=C1CSC(=O)N1CCCCNCC1CCc2ccccc2O1 (racemic) [Compound 4, (±)-3-[4-[(Chroman-2-yl)methylamine]butyl]-2,4-dioxothiazolidin] | 11.6 nM | 89.6% |  |  |  |  |  | 30.1 ± 0.6 nM |  |  |  |  |  |  | 
4 | O=C1C2CCCN2C(=O)N1CCCCNCCOc1ccccc1 (stereo not drawn) [Compound 12, 2-[4-[2-(Phenoxy)ethylamine]butyl]-1,3-dioxoperhydropyrrolo[1,2-c]imidazol] | 76.2 nM | 87.4% | > 10000 nM |  | > 1000 nM | > 1000 nM | > 10000 nM | 25.5 ± 0.9 nM |  | > 1000 nM | significantly prevented the injury | > 1000 nM | the degree of protection was somewhat below | 2.5 mg/kg | 1.4 °C
5 | O=C1C2CCCN2C(=O)N1CCCCNCCOc1cccc2ccccc12 (stereo not drawn) [Compound 14, 2-[4-[2-(Naphth-1-oxi)ethylamine]butyl]-1,3-dioxoperhydropyrrolo[1,2-c]imidazol] |  |  | 41.5 ± 7.5 nM |  | > 1000 nM | > 1000 nM | > 10000 nM | 2.4 ± 0.6 nM |  | 30.9 ± 4.9 nM |  | 42.6 ± 4.4 nM |  |  | 
6 | O=C1C2CCCN2C(=O)N1CCCCNCc1nc2ccccc2[nH]1 (stereo not drawn) [Compound 16, 2-[4-[(Benzimidazol-2-yl)methylamine]butyl]-1,3-dioxoperhydropyrrolo[1,2-c]imidazol] |  |  | > 10000 nM |  | > 10000 nM | > 1000 nM | > 10000 nM | > 10000 nM |  | > 1000 nM |  | > 10000 nM |  |  | 
7 | COc1ccccc1CCCNCCCCN1C(=O)C2CCCN2C1=O (stereo not drawn) [Compound 19, 2-[4-[3-(o-Methoxyphenyl)propylamine]butyl]-1,3-dioxoperhydropyrrolo[1,2-c]imidazol] |  |  | > 1000 nM |  | > 10000 nM | > 10000 nM | > 10000 nM | 73.9 ± 5 nM |  | > 1000 nM |  | > 10000 nM |  |  | 
8 | COc1ccccc1CCCCNCCCCN1C(=O)C2CCCN2C1=O (stereo not drawn) [Compound 20, 2-[4-[4-(o-Methoxyphenyl)butylamine]butyl]-1,3-dioxoperhydropyrrolo[1,2-c]imidazol] |  |  | > 10000 nM |  | > 10000 nM | > 1000 nM | > 10000 nM | 138 ± 26.3 nM |  | > 1000 nM |  | > 10000 nM |  |  | 
9 | COc1ccccc1CCCNCCCN1C(=O)C2CCCN2C1=O (stereo not drawn) [Compound 21, 2-[3-[3-(o-Methoxyphenyl)propylamine]propyl]-1,3-dioxoperhydropyrrolo[1,2-c]imidazol] |  |  | > 10000 nM |  | > 10000 nM | > 10000 nM | > 1000 nM | > 1000 nM |  | > 1000 nM |  | > 10000 nM |  |  | 
